These results are taken from ChEMBL document CHEMBL1201862, “PubChem BioAssay data set” (2004).

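Interpolation was linear, between the two tested concentrations surrounding the appropriate level; five concentrations were tested over 48 hours in 96-well plates. GI50 = concentration required for 50% inhibition of growth.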 Active and inactive are the calls of the source. Cut-off read from the data, not from the text of the source: active = GI50 up to about 1.1 µM and inactive = higher. Where only a bound is given, the exact number is not on record here.

Test systems include OVCAR-3; UO-31; SNB-19; KM12; SN12C; MOLT-4; HCT-15; ACHN; SK-OV-3; BT-549; CAKI-1; Malme-3M; LOX IMVI; OVCAR-4; OVCAR-8; MCF7; NCI-H226; NCI-H522; UACC-257; SF-539.
Test in all cases: NCI-60 cell line screen, 48 h

Turning to `O=C(O)CC(Sc1ccccc1)c1ccccc1` (stereo not drawn), the GI50 in the assay on OVCAR-3, in the assay on UO-31, in the assay on SNB-19, with KM12, in the assay on SN12C and in the assay on MOLT-4 was > 100 µM (inactive) each time. The GI50 in the assay with HCT-15 was above 100 µM; in the assay with ACHN, > 100 µM (inactive); with SK-OV-3, > 100 µM (inactive); in the assay with BT-549 it was > 100 µM (inactive); in the assay on CAKI-1, > 100 µM (inactive); with Malme-3M, > 100 µM (inactive). Also, the GI50 in the assay with LOX IMVI, with OVCAR-4, in the assay on OVCAR-8, with MCF7, with NCI-H226 and in the assay with NCI-H522 was > 100 µM (inactive) each time.
With `O=[N+]([O-])C1=Cc2c(O)ccc(O)c2C2OC=CC12` (stereo not drawn), the GI50 in the assay with OVCAR-3 is 7.94 µM (inactive); in the assay on UO-31, 14.6 µM (inactive); in the assay with SNB-19, 23.9 µM (inactive); in the assay on KM12, 16.4 µM (inactive); in the assay on SN12C, 18.2 µM (inactive); in the assay with MOLT-4 it was 3.6 µM (inactive). The GI50 with HCT-15 was 18.5 µM; with UACC-257 it was 15 µM (inactive); in the assay on ACHN, 14.8 µM (inactive); in the assay with SK-OV-3 it was > 60.4 µM (inactive); in the assay with BT-549 it was 14.6 µM (inactive); with CAKI-1, 13.1 µM (inactive). Besides, the GI50 in the assay with SF-539 is 22.2 µM (inactive); with LOX IMVI, 15.7 µM (inactive); in the assay on OVCAR-4, 16.4 µM (inactive); in the assay on OVCAR-8 it was 21.4 µM (inactive); with MCF7, 13.6 µM (inactive); in the assay with NCI-H226, 30.7 µM (inactive). In the assay with NCI-H522, the GI50 was 3.83 µM (inactive).
Consider `CCOC(=O)c1ccc(-n2nnc(C(N)=O)c2O)cc1`, for which the GI50 in the assay with OVCAR-3, in the assay with UO-31, with SNB-19, in the assay on KM12, in the assay with SN12C and with MOLT-4 was > 100 µM (inactive) each time. The GI50 in the assay with HCT-15 was above 100 µM; with UACC-257, > 100 µM (inactive); in the assay on ACHN, > 100 µM (inactive); in the assay with SK-OV-3, > 100 µM (inactive); with BT-549, > 100 µM (inactive); in the assay on CAKI-1, > 100 µM (inactive). The GI50 in the assay on Malme-3M, in the assay on OVCAR-4, with OVCAR-8, in the assay with MCF7, with NCI-H226 and in the assay with NCI-H522 was > 100 µM (inactive) throughout.
On to `CN(O)C(=O)/C=C/c1ccc(OCc2cccc(Cl)c2)cc1`, for which the GI50 in the assay on OVCAR-3 is 38.6 µM (inactive); in the assay on UO-31, 10.1 µM (inactive); in the assay with SNB-19, 42.5 µM (inactive); in the assay with KM12, 17.7 µM (inactive); with SN12C it was 20.1 µM (inactive); in the assay with MOLT-4 it was 8.77 µM (inactive). The GI50 in the assay with HCT-15 is 12.9 µM; in the assay on UACC-257, 51.8 µM (inactive); with ACHN it was 14.5 µM (inactive); with SK-OV-3, 25.6 µM (inactive); in the assay with BT-549, 21.8 µM (inactive); with CAKI-1 it was 26.4 µM (inactive). The GI50 in the assay with SF-539 is 29.2 µM (inactive); in the assay with LOX IMVI, 11.2 µM (inactive); in the assay on OVCAR-4, 19.6 µM (inactive); with OVCAR-8, 16.3 µM (inactive); with MCF7, 48.6 µM (inactive); in the assay with NCI-H226, 21.4 µM (inactive). Moreover, the GI50 in the assay on NCI-H522 was 25.7 µM (inactive).
Turning to `CSC(=S)CC(O)[C@@H]1CC2c3ccccc3C1c1ccccc12` (stereo partly drawn), the GI50 was 8.51 µM (inactive) in the assay on OVCAR-3; 11.7 µM (inactive) in the assay with UO-31; 11.2 µM (inactive) in the assay on SNB-19; 11.3 µM (inactive) in the assay with KM12; 18.7 µM (inactive) in the assay on SN12C; 1.49 µM (inactive) with MOLT-4. Besides, the GI50 in the assay with HCT-15 was 9.73 µM; in the assay with ACHN, 13.6 µM (inactive); in the assay on SK-OV-3 it was 15.3 µM (inactive); in the assay with BT-549 it was 13.2 µM (inactive); with SF-539, 17.9 µM (inactive); in the assay on Malme-3M it was 19.7 µM (inactive). Besides, the GI50 in the assay with LOX IMVI is 6.35 µM (inactive); in the assay on OVCAR-4 it was 12.1 µM (inactive); in the assay on OVCAR-8, 14.9 µM (inactive); with MCF7, 13.9 µM (inactive); in the assay with NCI-H226, 9.06 µM (inactive); with NCI-H522 it was 2.82 µM (inactive).
Consider `CC(C)(C)OC(=O)C(C1NC(C(=O)O)C(C)(C)S1)N1C(=O)c2ccccc2C1=O` (stereo not drawn), for which the GI50 with OVCAR-3, with UO-31, in the assay with SNB-19, in the assay on KM12, in the assay with SN12C and with MOLT-4 was > 100 µM (inactive) each time. For the same compound, the GI50 was above 100 µM with HCT-15; > 100 µM (inactive) in the assay on UACC-257; > 100 µM (inactive) in the assay on ACHN; > 100 µM (inactive) with SK-OV-3; > 100 µM (inactive) in the assay on BT-549; > 100 µM (inactive) in the assay on CAKI-1. Besides, the GI50 in the assay with SF-539, in the assay on Malme-3M, in the assay on LOX IMVI, in the assay on OVCAR-4, in the assay on OVCAR-8 and in the assay with MCF7 was > 100 µM (inactive) each time. In addition, in the assay with NCI-H522, the GI50 was > 100 µM (inactive).
Consider `COC(=O)c1ccc(/C=C2\Oc3cc(O)ccc3C2=O)cc1`, for which the GI50 was 53.3 µM (inactive) in the assay with OVCAR-3; 46.3 µM (inactive) in the assay with UO-31; 69.8 µM (inactive) in the assay with SNB-19; 49.3 µM (inactive) in the assay on KM12; 53.8 µM (inactive) with SN12C; 43.7 µM (inactive) with MOLT-4. In addition, the GI50 with HCT-15 is 53.3 µM; with UACC-257 it was > 100 µM (inactive); in the assay with ACHN, 31.7 µM (inactive); with SK-OV-3, > 100 µM (inactive); in the assay on BT-549, 39.8 µM (inactive); in the assay with CAKI-1, 68.5 µM (inactive). In addition, the GI50 with SF-539 was > 100 µM (inactive); in the assay with OVCAR-4, 62.8 µM (inactive); in the assay with OVCAR-8 it was 61.5 µM (inactive); in the assay on MCF7, 38.5 µM (inactive); in the assay with NCI-H226, 55.3 µM (inactive); with NCI-H522 it was 20 µM (inactive).
On to `CN(Cc1cnc2nc(N)nc(N)c2n1)c1ccc(C(=O)NCCCS(=O)(=O)O)cc1`, for which the GI50 with OVCAR-3, with UO-31, with SNB-19, in the assay on KM12, in the assay with SN12C and in the assay on MOLT-4 was > 100 µM (inactive) each time. For the same compound, the GI50 in the assay with HCT-15 is above 100 µM; with UACC-257, > 100 µM (inactive); with ACHN, > 100 µM (inactive); with SK-OV-3, > 100 µM (inactive); in the assay with BT-549, > 100 µM (inactive); in the assay with SF-539, > 100 µM (inactive). Also, the GI50 in the assay with Malme-3M was > 100 µM (inactive); in the assay on LOX IMVI it was 75.9 µM (inactive); with OVCAR-4 it was > 100 µM (inactive); in the assay on OVCAR-8, > 100 µM (inactive); in the assay with MCF7 it was > 100 µM (inactive); in the assay on NCI-H226 it was > 100 µM (inactive). Also, the GI50 in the assay with NCI-H522 is > 100 µM (inactive).
On to `OC[C@@H](O)[C@H](O)[C@@H](O)/C=N/Nc1ccc(Cl)nn1`, for which the GI50 was > 100 µM (inactive) with OVCAR-3; > 100 µM (inactive) in the assay with SNB-19; > 100 µM (inactive) in the assay on KM12; > 100 µM (inactive) in the assay with SN12C; > 100 µM (inactive) in the assay on MOLT-4; above 100 µM in the assay with HCT-15. In addition, the GI50 in the assay with UACC-257, with ACHN, with SK-OV-3, with BT-549, with CAKI-1 and in the assay with SF-539 was > 100 µM (inactive) in each case. In addition, the GI50 in the assay with Malme-3M, in the assay on LOX IMVI, with OVCAR-4, in the assay with OVCAR-8, in the assay with MCF7 and in the assay with NCI-H522 was > 100 µM (inactive) throughout.
For the compound `COc1ccccc1N1C(=O)/C(=C\c2cccc(Oc3ccccc3)c2)SC1c1ccccc1` (stereo not drawn), the GI50 was 27.7 µM (inactive) with OVCAR-3; 51.3 µM (inactive) in the assay with UO-31; 31 µM (inactive) in the assay on SNB-19; 42.6 µM (inactive) in the assay on KM12; 30.2 µM (inactive) in the assay with SN12C; 31 µM (inactive) with MOLT-4. The GI50 in the assay with HCT-15 is 47.2 µM; with UACC-257, 31.3 µM (inactive); in the assay with ACHN, 35.5 µM (inactive); in the assay on SK-OV-3 it was 47.4 µM (inactive); in the assay on BT-549 it was 29.8 µM (inactive); with CAKI-1 it was > 100 µM (inactive). In addition, the GI50 in the assay on SF-539 is 34.5 µM (inactive); in the assay on Malme-3M, 37.6 µM (inactive); with LOX IMVI, 21.6 µM (inactive); in the assay with OVCAR-4 it was 30.6 µM (inactive); in the assay with OVCAR-8 it was 31.3 µM (inactive); in the assay with MCF7, 21.5 µM (inactive). For the same compound, the GI50 in the assay on NCI-H522 was 24.1 µM (inactive).
For the compound `CC1=CC(O)CC(C)(C)C1/C=C/C(C)=C/C=C/C(C)=C/C=C/C=C(C)/C=C/C=C(C)/C=C/C1=C(C)CC(O)CC1(C)C` (stereo not drawn), the GI50 with OVCAR-3 was 17.3 µM (inactive); with UO-31, 34 µM (inactive); with SNB-19 it was 53.2 µM (inactive); in the assay with KM12 it was 38.6 µM (inactive); in the assay on MOLT-4, 20.9 µM (inactive); in the assay on HCT-15 it was 19.7 µM. The GI50 in the assay with UACC-257 was 24.9 µM (inactive); in the assay on ACHN, 16.6 µM (inactive); in the assay on SK-OV-3, 40.8 µM (inactive); with BT-549 it was 17.8 µM (inactive); in the assay with CAKI-1, 23.2 µM (inactive); in the assay with Malme-3M it was 15.6 µM (inactive). In addition, the GI50 was 56.1 µM (inactive) in the assay with LOX IMVI; 28.8 µM (inactive) in the assay with OVCAR-4; 19.7 µM (inactive) in the assay with OVCAR-8; 27.7 µM (inactive) in the assay on MCF7; 21.4 µM (inactive) in the assay on NCI-H226; 15.2 µM (inactive) in the assay with NCI-H522.
